The source of these data is patent US20090023200A1, “PARTICLE FOR DETECTING ENZYME ACTIVITY, METHOD FOR DETECTING THE ENZYME ACTIVITY AND ENZYME ACTIVITY DETECTION DEVICE BY THE USE THEREOF” (priority 2005, published 2009).

Square brackets hold non-standard residues; d marks the D form. Ends that are not written are not given here. * marks the point of attachment. FITC = O=C1OC2(c3ccc(O)cc3Oc3cc(O)ccc32)c2ccc(NC(=S)*)cc21; Dnp = O=[N+]([O-])c1ccc(*)c([N+](=O)[O-])c1; βAla = NCCC(=O)O

What all share (assay type): biochemical
Data set [1] has as its system subtilisin. Nature of the data set: Subtilisin cleavage of particles for detecting enzyme activity, fluorescence change (Example 1). Particulars: for Fluorescence value (changed amount): subtilisin 10 units, 1 mg particle, difference 20 minutes after adding sample solution vs before, excitation 485 nm, fluorescence 535 nm. The protocol: To each 1 mg of the particle for detecting the enzyme activity of the samples 1 to 8, 190 μL of 20 mM Tris-HCl buffer (pH 8.0, 100 mM NaCl, 50 mM CaCl2) containing 0.01% Tween 20 was added, to which 10 μL of subtilisin aqueous solution (10 units) as a sample solution was added. Every measurement time, 10 μL of the sample was taken and 190 μL of the buffer was added, the mixture was transferred to a 96-well plate, and fluorescence values were measured (measurement time: 0.1 seconds) using Wallac 1420 ARVO sx plate reader manufactured by PerkinElmer. A changed amount (difference between the fluorescence value 20 minutes after adding the sample solution and the fluorescence value before adding the sample solution) of the fluorescence value 20 minutes after adding the sample solution is shown in the column on the right in Table 1 (excitation wavelength: 485 nm, fluorescence wavelength: 535 nm).

Data set [2] deals with trypsin. Kind of data set: Trypsin cleavage of particles for detecting enzyme activity, fluorescence change (Example 2). Particulars: trypsin 100 units, 1 mg particle, difference 60 minutes after adding sample solution vs before; excitation 485 nm, fluorescence 535 nm. The protocol:
To each 1 mg of the particle for detecting the enzyme activity of the samples 9 to 21, 190 μL of 20 mM Tris-HCl buffer (pH 8.0, 100 mM NaCl, 50 mM CaCl2) containing 0.01% Tween 20 was added, to which […] of trypsin aqueous solution (100 units) as the sample solution was added. Every measurement time, 10 μL of the sample was taken and 190 μL of the buffer was added, the mixture was transferred to the 96-well plate, and fluorescence values were measured (measurement time: 0.1 seconds) using Wallac 1420 ARVO sx plate reader manufactured by PerkinElmer. The changed amount (difference between the fluorescence value 60 minutes after adding the sample solution and the fluorescence value before adding the sample solution) of the fluorescence value 60 minutes after adding the sample solution is shown in the column on the right in Table 2 (excitation wavelength: 485 nm, fluorescence wavelength: 535 nm).

Another data set relates to elastase. Kind of data set: Elastase cleavage of particles, fluorescence change (Example 3). Particulars: for Fluorescence value Elastase (changed amount): elastase 10 units, 1 mg particle, difference 60 minutes after adding sample solution vs before, excitation 485 nm, fluorescence 535 nm. The protocol: (§1) To each 1 mg of the particle for detecting the enzyme activity of the samples 22 to 25, 190 μL of 20 mM Tris-HCl buffer (pH 8.0, 100 mM NaCl, 50 mM CaCl2) containing 0.01% Tween 20 was added, to which 10 μL of elastase aqueous solution (10 units), 10 μL of trypsin aqueous solution (10 units) and 10 μL of subtilisin aqueous solution (10 units) as the sample solution was added. Every measurement time, 10 μL of the sample was taken and 190 μL of the buffer was added, the mixture was transferred to the 96-well plate, and fluorescence values were measured (measurement time: 0.1 seconds) using Wallac 1420 ARVO sx plate reader manufactured by PerkinElmer. The changed amount (difference between the fluorescence value 60 minutes after adding the sample solution and the fluorescence value before adding the sample solution) of the fluorescence value […] the sample solution is shown in the column on the right in Table 3 (excitation wavelength: 485 nm, fluorescence wavelength: 535 nm).

The subject of data set [3] is trypsin. Nature of the data set: Trypsin cleavage of particles, fluorescence change (Example 3). Particulars: for Fluorescence value Trypsin (changed amount): trypsin 10 units, 1 mg particle, difference 60 minutes after adding sample solution vs before, excitation 485 nm, fluorescence 535 nm. The protocol:
as §1

Data set [4] concerns subtilisin. Nature of the data set: Subtilisin cleavage of particles, fluorescence change (Example 3). Particulars: subtilisin 10 units, 1 mg particle, difference 60 minutes after adding sample solution vs before; excitation 485 nm, fluorescence 535 nm. The protocol:
as §1

On to “Sample 1: PEGA resin particle bearing FITC-β-Ala-Pro-Leu-Gly-Lys, Dnp quencher on lysine ({FITC}-[βAla]PLGK(Dnp); also: attached to PEGA resin particle)”, for which the “Fluorescence value (changed amount)” value with subtilisin [1] is given as 14.8. In addition, in the data set on subtilisin [1] (subtilisin, 20 minutes), the “difference in the changed amount of the fluorescence values, sample 1 (highest activity) vs sample 8 (lowest activity)” value is listed as at least 10 times.
As to “Sample 2: PEGA resin particle bearing FITC-β-Ala-Ala-Pro-Ala-Lys, Dnp quencher on lysine ({FITC}-[βAla]APAK(Dnp); also: attached to PEGA resin particle)”, the “Fluorescence value (changed amount)” value with subtilisin [1] is given as 7.9.
Still for that read-out and setting: under “Sample 3: PEGA resin particle bearing FITC-β-Ala-Ala-Pro-Val-Lys, Dnp quencher on lysine ({FITC}-[βAla]APVK(Dnp); also: attached to PEGA resin particle)” stands 1.2.
Take “Sample 10: PEGA resin particle bearing FITC-β-Ala-Asp-Gly-Arg-Lys, Dnp quencher on lysine ({FITC}-[βAla]DGRK(Dnp); also: attached to PEGA resin particle)”: the “Fluorescence value (changed amount)” value in the data set with trypsin [2] is on record as 57.
Consider “Sample 11: PEGA resin particle bearing FITC-β-Ala-Pro-Arg-Gly-Lys, Dnp quencher on lysine ({FITC}-[βAla]PRGK(Dnp); also: attached to PEGA resin particle)”, for which the “Fluorescence value (changed amount)” value with trypsin [2] came out at 51.
Regarding “Sample 12: PEGA resin particle bearing FITC-β-Ala-His-Glu-Lys-Lys, Dnp quencher on lysine ({FITC}-[βAla]HEKK(Dnp); also: attached to PEGA resin particle)”, in the data set with trypsin [2], the “Fluorescence value (changed amount)” value was 45.
For “Sample 13: PEGA resin particle bearing FITC-β-Ala-Ser-Ala-Arg-Lys, Dnp quencher on lysine ({FITC}-[βAla]SARK(Dnp); also: attached to PEGA resin particle)”, the “Fluorescence value (changed amount)” value with trypsin [2] is reported as 24.
Turning to “Sample 14: PEGA resin particle bearing FITC-β-Ala-Asn-Pro-Arg-Lys, Dnp quencher on lysine ({FITC}-[βAla]NPRK(Dnp); also: attached to PEGA resin particle)”, in the data set with trypsin [2], the “Fluorescence value (changed amount)” value came out at 18.
As to “Sample 15: PEGA resin particle bearing FITC-β-Ala-Gly-Lys-Arg-Lys, Dnp quencher on lysine ({FITC}-[βAla]GKRK(Dnp); also: attached to PEGA resin particle)”, the “Fluorescence value (changed amount)” value in the data set on trypsin [2] is 18.
The same measure, in the same setting: under “Sample 16: PEGA resin particle bearing FITC-β-Ala-Gly-Arg-Arg-Lys, Dnp quencher on lysine ({FITC}-[βAla]GRRK(Dnp); also: attached to PEGA resin particle)” stands 14; under “Sample 17: PEGA resin particle bearing FITC-β-Ala-Pro-Arg-Leu-Lys, Dnp quencher on lysine ({FITC}-[βAla]PRLK(Dnp); also: attached to PEGA resin particle)”, 10.
Consider “Sample 18: PEGA resin particle bearing FITC-β-Ala-Thr-Arg-Val-Lys, Dnp quencher on lysine ({FITC}-[βAla]TRVK(Dnp); also: attached to PEGA resin particle)”, for which the “Fluorescence value (changed amount)” value with trypsin [2] worked out at 9.
For “Sample 19: PEGA resin particle bearing FITC-β-Ala-Phe-Phe-Arg-Lys, Dnp quencher on lysine ({FITC}-[βAla]FFRK(Dnp); also: attached to PEGA resin particle)”, in the data set on trypsin [2], the “Fluorescence value (changed amount)” value is listed as 8.
In the case of “Sample 20: PEGA resin particle bearing FITC-β-Ala-His-Leu-Lys-Lys, Dnp quencher on lysine ({FITC}-[βAla]HLKK(Dnp); also: attached to PEGA resin particle)”, the “Fluorescence value (changed amount)” value in the data set with trypsin [2] worked out at 7.
For the substance “Sample 21: PEGA resin particle bearing FITC-β-Ala-Pro-Phe-Arg-Lys, Dnp quencher on lysine ({FITC}-[βAla]PFRK(Dnp); also: attached to PEGA resin particle)”, the “Fluorescence value (changed amount)” value in the data set on trypsin [2] is recorded as 3.
For the substance “Sample 22: PEGA resin particle bearing FITC-β-Ala-Leu-Leu-Glu-Lys, Dnp quencher on lysine ({FITC}-[βAla]LLEK(Dnp); also: attached to PEGA resin particle)”, in the data set with elastase, the “Fluorescence value Elastase (changed amount)” value came out at 38. Also, the “fluorescence change by trypsin activity relative to that by subtilisin activity” value with trypsin [3] (Table 3 values, same particle) is given as “about 1/240”. Besides, the “Fluorescence value Trypsin (changed amount)” value in the data set on trypsin [3] worked out at 2. Besides, the “Fluorescence value Subtilisin (changed amount)” value with subtilisin [4] is reported as 481.
As to “Sample 23: PEGA resin particle bearing FITC-β-Ala-Ala-Pro-Ala-Lys, Dnp quencher on lysine ({FITC}-[βAla]APAK(Dnp); also: attached to PEGA resin particle)”, the “fluorescence change by elastase activity relative to that by subtilisin activity” value in the data set with elastase (Table 3 values, same particle) was “about 2 times”. Moreover, in the data set on elastase, the “Fluorescence value Elastase (changed amount)” value is reported as 582. The “Fluorescence value Trypsin (changed amount)” value in the data set on trypsin [3] turned out to be 13. For the same substance, the “Fluorescence value Subtilisin (changed amount)” value with subtilisin [4] is given as 291.
Regarding “Sample 24: PEGA resin particle bearing FITC-β-Ala-Asn-Leu-Asp-Lys, Dnp quencher on lysine ({FITC}-[βAla]NLDK(Dnp); also: attached to PEGA resin particle)”, the “Fluorescence value Elastase (changed amount)” value in the data set on elastase worked out at 23. Further, the “Fluorescence value Trypsin (changed amount)” value with trypsin [3] amounted to 5. Also, the “Fluorescence value Subtilisin (changed amount)” value in the data set with subtilisin [4] is recorded as 446.
Consider “Sample 25: PEGA resin particle bearing FITC-β-Ala-Ala-Pro-Leu-Lys, Dnp quencher on lysine ({FITC}-[βAla]APLK(Dnp); also: attached to PEGA resin particle)”, for which the “Fluorescence value Elastase (changed amount)” value in the data set with elastase was 134. For the same substance, in the data set on trypsin [3], the “Fluorescence value Trypsin (changed amount)” value was 11. In addition, the “Fluorescence value Subtilisin (changed amount)” value in the data set with subtilisin [4] was found to be 428.
